Reference: the supplement of paper PMC13380429

Key:
Conditions in all cases: 72 h
[1] = system: U2OS; assay: cell viability relative to DMSO; higher = less toxic
[2] = system: Caco-2; assay: as above
[3] = system: HepG2; assay: as above
[4] = system: Calu-3; assay: as above
[5] = system: Vero E6; assay: as above
[6] = system: U2OS; assay: drug sensitivity score (DSS) for viability; higher = more toxic; extreme values may be limits of the assay
[7] = system: Caco-2; assay: as above
[8] = system: HepG2; assay: as above
[9] = system: Calu-3; assay: as above
[10] = system: Vero E6; assay: as above
[11] = system: U2OS; assay: relative viability EC50 (midpoint between 100% and the lowest measured viability); higher = less toxic
[12] = system: Caco-2; assay: as above
[13] = system: HepG2; assay: as above
[14] = system: Calu-3; assay: as above
[15] = system: Vero E6; assay: as above

Clc1ccc2c(c1)CCc1cccnc1C2=C1CCNCC1 [desloratadine]
cell viability ([1]; 1 nM): 100%
cell viability ([1]; 10 nM): 98.9%
cell viability ([1]; 100 nM): 97.3%
cell viability ([1]; 1000 nM): 104%
cell viability ([1]; 10000 nM): 95.6%
cell viability ([2]; 1 nM): 91.2%
cell viability ([2]; 10 nM): 93.5%
cell viability ([2]; 100 nM): 94.7%
cell viability ([2]; 1000 nM): 90.2%
cell viability ([2]; 10000 nM): 102%
cell viability ([3]; 1 nM): 113%
cell viability ([3]; 10 nM): 90.7%
cell viability ([3]; 100 nM): 97.2%
cell viability ([3]; 1000 nM): 110%
cell viability ([3]; 10000 nM): 93.1%
cell viability ([4]; 1 nM): 99.9%
cell viability ([4]; 10 nM): 100%
cell viability ([4]; 100 nM): 110%
cell viability ([4]; 1000 nM): 104%
cell viability ([4]; 10000 nM): 106%
cell viability ([5]; 1 nM): 104%
cell viability ([5]; 10 nM): 102%
cell viability ([5]; 100 nM): 104%
cell viability ([5]; 1000 nM): 106%
cell viability ([5]; 10000 nM): 99.9%
drug sensitivity score [6]: 0
drug sensitivity score [7]: 0
drug sensitivity score [8]: 0
drug sensitivity score [9]: 0
drug sensitivity score [10]: 0
relative viability EC50 [11]: > 10 µM
relative viability EC50 [12]: > 10 µM
relative viability EC50 [13]: > 10 µM
relative viability EC50 [14]: > 10 µM
relative viability EC50 [15]: > 10 µM

Cc1cc(C(C)(C)CC(C)(C)C)ccc1OCCOCC[N+](C)(C)Cc1ccccc1 [methylbenzethonium-chloride]
cell viability ([1]; 1 nM): 101%
cell viability ([1]; 10 nM): 94.7%
cell viability ([1]; 100 nM): 102%
cell viability ([1]; 1000 nM): 98.9%
cell viability ([1]; 10000 nM): 82.2%
cell viability ([2]; 1 nM): 95.2%
cell viability ([2]; 10 nM): 102%
cell viability ([2]; 100 nM): 99.3%
cell viability ([2]; 1000 nM): 85%
cell viability ([2]; 10000 nM): 42.5%
cell viability ([3]; 1 nM): 92%
cell viability ([3]; 10 nM): 105%
cell viability ([3]; 100 nM): 98.1%
cell viability ([3]; 1000 nM): 108%
cell viability ([3]; 10000 nM): 81.2%
cell viability ([4]; 1 nM): 103%
cell viability ([4]; 10 nM): 103%
cell viability ([4]; 100 nM): 91.4%
cell viability ([4]; 1000 nM): 89.8%
cell viability ([4]; 10000 nM): 80.5%
cell viability ([5]; 1 nM): 95.9%
cell viability ([5]; 10 nM): 98.5%
cell viability ([5]; 100 nM): 92.2%
cell viability ([5]; 1000 nM): 98.3%
cell viability ([5]; 10000 nM): 106%
drug sensitivity score [6]: 0.6
drug sensitivity score [7]: 5.4
drug sensitivity score [8]: 0.3
drug sensitivity score [9]: 1.3
drug sensitivity score [10]: 0
relative viability EC50 [11]: > 10 µM
relative viability EC50 [12]: 1.51 µM
relative viability EC50 [13]: > 10 µM
relative viability EC50 [14]: > 10 µM
relative viability EC50 [15]: > 10 µM

N=C(N)N/N=C/c1c(Cl)cccc1Cl [guanaben-acetate]
cell viability ([1]; 1 nM): 96.9%
cell viability ([1]; 10 nM): 96.2%
cell viability ([1]; 100 nM): 94.6%
cell viability ([1]; 1000 nM): 97.7%
cell viability ([1]; 10000 nM): 91.5%
cell viability ([2]; 1 nM): 94.3%
cell viability ([2]; 10 nM): 95.8%
cell viability ([2]; 100 nM): 87.3%
cell viability ([2]; 1000 nM): 95.4%
cell viability ([2]; 10000 nM): 90.7%
cell viability ([3]; 1 nM): 98.1%
cell viability ([3]; 10 nM): 102%
cell viability ([3]; 100 nM): 102%
cell viability ([3]; 1000 nM): 93.9%
cell viability ([3]; 10000 nM): 101%
cell viability ([4]; 1 nM): 91.7%
cell viability ([4]; 10 nM): 94.2%
cell viability ([4]; 100 nM): 91%
cell viability ([4]; 1000 nM): 99.7%
cell viability ([4]; 10000 nM): 92.1%
cell viability ([5]; 1 nM): 95.3%
cell viability ([5]; 10 nM): 102%
cell viability ([5]; 100 nM): 100%
cell viability ([5]; 1000 nM): 97.5%
cell viability ([5]; 10000 nM): 97.7%
drug sensitivity score [6]: 0
drug sensitivity score [7]: 0
drug sensitivity score [8]: 0
drug sensitivity score [9]: 0
drug sensitivity score [10]: 0
relative viability EC50 [11]: > 10 µM
relative viability EC50 [12]: > 10 µM
relative viability EC50 [13]: > 10 µM
relative viability EC50 [14]: > 10 µM
relative viability EC50 [15]: > 10 µM
